Assay results reported in patent US8598145B2, “Mitochondrially delivered anti-cancer compounds” (priority 2008, dated 2013).

Key:
[1] = system: Ras-transformed B9 cells with a defective Complex II; assay: Apoptosis in Ras-transformed B1 and B9 cells (FIG. 4C); format: cell-based, Chinese hamster
Experimental: 4C—After 24 h of treatment with Complex II targeting drugs TTFA or MitoVES, Ras transformed B1 and B9 cells were assessed for apoptosis using the Annexin V binding method.
The following cell lines used in this study were obtained from ATCC, unless specified otherwise: Human T lymphoma cells Jurkat, human mesothelioma cells Meso-I, MM-BI, Ist-Mes, Ist-Mes-2 (Pass, H. I. et al. Characteristics of nine newly derived mesothelioma cell lines. Ann. Thorac. Surg. 59, 835-844 (1995)), human breast cancer cells MCF-7 (erbB2-low) and MDA-MB-453 (erbB2-high), human colorectal cells HCT-116, human hepatocarcinoma cells Huh-7, mouse mesothelioma cells AE17 (Jackaman, C. et al. IL-2 intratumoral immunotherapy enhances CD8+ T cells that mediate destruction of tumor cells and tumor-associated vasculature: a novel mechanism for IL-2. J. Immunol. 171, […] (2003), human non-malignant mesothelial cells Met-5A, […] (Claycomb, W. C. et al. HL-1 cells: a cardiac muscle cell line that contracts and retains phenotypic characteristics of the adult cardiomyocyte. Proc. Natl. Acad. Sci. USA 95, 2979-2984 […]) and H9c2, and the human endothelial-like cells EAhy926 (Edgell, C. J., McDonald, C. C. & Graham, J. B. Permanent cell line expressing human factor VIII-related antigen established by hybridization. Proc. Natl. Acad. Sci. USA 80, 3734-3737 (1983)). Jurkat cells were grown in the RPMI medium while DMEM was used for other malignant cell lines and for Met-5A cells, supplemented with 10% FCS and antibiotics. HL-1 cells, maintained in fibronectin/gelatine-coated dishes, were grown in the Claycomb medium supplemented with noradrenalin (Claycomb, W. C. et al. HL-1 cells: a cardiac muscle cell line that contracts and retains phenotypic characteristics of the adult cardiomyocyte. Proc. Natl. Acad. Sci. USA 95, 2979-2984 […]), EAhy926 cells were grown in complete DMEM supplemented with HAT (Edgell, C. J., McDonald, C. C. & Graham, J. B. Permanent cell line expressing human factor VIII-related antigen established by hybridization. Proc. Natl. Acad. Sci. USA 80, 3734-3737 (1983)). Cells deficient in mtDNA (ρ^0 phenotype) were prepared as detailed in Weber, T. et al., (Mitochondria play a central role in apoptosis induced by α-tocopheryl succinate, an agent with anticancer activity. Comparison with receptor-mediated pro-apoptotic signaling. Biochemistry 42, 4277-4291 (2003)). Acquisition of the ρ^0 phenotype was confirmed by lack of expression by the cells of the mtDNA-encoded cytochrome c oxidase subunit II (COXII not shown). […]

malignant cells = assay: Apoptosis assays of FIG. 2 (Annexin V method); format: cell-based
Experimental: Jurkat (A, G), HCT-116 (B), MCF-7 (C), MDA-MB-453 (D), and Meso-2 cells (E) were exposed to MitoVES at concentrations 1-50 μM (A-F), or to VES4TPP or α-TOS at 50 μM (B). At the times shown, the cells were harvested and assessed for apoptosis. […] Apoptosis data shown are derived from three independent experiments and are presented as mean values±S.D., the micrographs are representative images of at least three independent experiments.
Toxicity of α-TOS, VE11S (“VES”), MitoVE3S, MitoVE5S, MitoVE7S, MitoVE9S, MitoVE11S (“MitoVES”), MitoVE11AE (“MitoVEAE”), MitoVE11F (“MitoVEF”), MitoVE11M (“MitoVEM”), and VES4TPP towards cancer cells was assessed on the basis of IC50, as detailed in Turanek, J., et al. ((2008). Liposomal formulation of vitamin E analogs as an efficient and selective anti-cancer treatment. Clin. Cancer Res. (submitted)). […]

Cc1c(C)c2c(c(C)c1OC(=O)CCC(=O)[O-])CCC(C)(CCCCCCCCCCC[P+](c1ccccc1)(c1ccccc1)c1ccccc1)O2 (stereo not shown) [MitoVE11S]
sensitivity to apoptosis of Ras-transformed B9 cells compared to Ras-transformed B1 cells ([1]; 24 h treatment, Annexin V binding): much less sensitive | sensitivity after reconstitution of Complex II function (human SDHC) in Ras-transformed B9 cells ([1]; B9 cells transfected to express human SDHC): restored the sensitivity | apoptosis in malignant versus normal equivalent cell types (malignant cells; FIG. 2, exception dividing endothelial cells): causes apoptosis selectively in malignant cells | fold more apoptogenic / more active than α-TOS in cancer cells (malignant cells; relative to α-TOS): up to 50 fold
